From patent US20260306640A1, “TECHNOLOGIES TARGETING CELL STATES” (Auron Therapeutics, Inc., priority 2023, published 2026)

How the values were obtained:
[1] = target: KAT2A (Homo sapiens, UniProt Q92830); assay: KAT2A degradation, Western Blot (Jess), NCI-H1048 cells; format: cell-based; parameters: degrader, Western blot (Jess); details: NCI-H1048 cells, KAT2A, 24 h, Western Blot, vs DMSO; read-out: KAT2A NCI-H1048 DC50
Protocol: (§1) MOLM-13 cells or NCI-H1048 cells were used for Western Blot analysis of KAT2A degradation. KAT2B degradation can be measured in a similar manner with NCI-H1048 cells.
(§2) H1048 cells were maintained at 37° C. in 5% CO2 and 90% humidity in HITES medium with 5% fetal bovine serum (FBS). HITES medium was […] with the following additions: 0.005 mg/ml Insulin, 0.01 mg/ml Transferrin, 30 nM Sodium selenite, 10 nM Hydrocortisone, 10 nM beta-estradiol, and extra 2 mM L-glutamine (for final concentration of 4.5 mM). Cells were plated in full media at 1 million cells/2 mL in a 6-well tissue culture treated plate with or without compounds for 24 h at 37° C. in 5% CO2.
(§3) MOLM-13 cells or NCI-H1048 cells were washed with PBS, then lysed with RIPA buffer containing 1×protease and phosphatase inhibitors (SantaCruz Biotechnologies Cat #sc-24948A). Protein was isolated by centrifugation at 12,000×g for 10 minutes at 4° C. and supernatant was collected. Protein was quantified via Bradford assay. Samples were diluted to 4 μg lysate in 16 μL RIPA buffer and then 4 μL of Jess Sample Buffer. Samples were heated at 95° C. for 5 minutes. Samples were loaded onto 12-230 kDa Jess™ Separation Module, 8×25 capillary cartridges (SM-W004, Biotechne). Antibodies loaded were: Primary antibody for KAT2A (GCN5L2 (C26A10) Rabbit mAb (3305, CST)) and for KAT2B (PCAF (C14G9)) Rabbit mAb (3378, CST) at 1:1000 and Anti-Rabbit Detection Module for Jess™ (Cat No #DM-001, Biotechne). Signal was detected by chemiluminescence.
(§4) DC50 values were determined from percent reduction of protein as compared to the DMSO control.

[2] = target: KAT2B (Homo sapiens, UniProt Q92831); assay: KAT2B degradation, Western Blot (Jess), NCI-H1048 cells; format: cell-based; parameters: degrader, Western blot (Jess); details: NCI-H1048 cells, KAT2B, 24 h, Western Blot, vs DMSO; read-out: KAT2B NCI-H1048 DC50
Chain of KAT2B (Q92831 whole entry): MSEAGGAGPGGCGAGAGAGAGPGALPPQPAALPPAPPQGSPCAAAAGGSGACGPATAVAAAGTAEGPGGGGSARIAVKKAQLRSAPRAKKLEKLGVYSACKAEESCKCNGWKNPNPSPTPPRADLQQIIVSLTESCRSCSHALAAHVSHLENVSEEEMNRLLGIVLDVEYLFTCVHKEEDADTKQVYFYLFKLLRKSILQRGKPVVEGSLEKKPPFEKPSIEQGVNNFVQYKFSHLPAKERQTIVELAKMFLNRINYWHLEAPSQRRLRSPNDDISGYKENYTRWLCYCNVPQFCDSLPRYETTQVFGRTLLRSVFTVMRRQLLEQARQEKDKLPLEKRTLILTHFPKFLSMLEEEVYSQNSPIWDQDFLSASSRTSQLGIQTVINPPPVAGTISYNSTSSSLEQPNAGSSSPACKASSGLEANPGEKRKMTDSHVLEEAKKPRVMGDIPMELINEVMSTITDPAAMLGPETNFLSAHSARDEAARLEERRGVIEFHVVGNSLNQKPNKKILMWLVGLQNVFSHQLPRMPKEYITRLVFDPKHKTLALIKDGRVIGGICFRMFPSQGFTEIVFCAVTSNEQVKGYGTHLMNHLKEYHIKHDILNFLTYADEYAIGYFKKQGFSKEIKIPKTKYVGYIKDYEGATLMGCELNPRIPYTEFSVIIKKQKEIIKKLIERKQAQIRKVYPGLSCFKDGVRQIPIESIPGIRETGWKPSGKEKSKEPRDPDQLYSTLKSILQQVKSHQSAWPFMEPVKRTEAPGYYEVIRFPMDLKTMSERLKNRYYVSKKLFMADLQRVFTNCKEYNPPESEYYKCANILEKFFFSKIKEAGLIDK
Protocol: as §1, §2, §3, §4

Chain of KAT2A (Q92830 whole entry): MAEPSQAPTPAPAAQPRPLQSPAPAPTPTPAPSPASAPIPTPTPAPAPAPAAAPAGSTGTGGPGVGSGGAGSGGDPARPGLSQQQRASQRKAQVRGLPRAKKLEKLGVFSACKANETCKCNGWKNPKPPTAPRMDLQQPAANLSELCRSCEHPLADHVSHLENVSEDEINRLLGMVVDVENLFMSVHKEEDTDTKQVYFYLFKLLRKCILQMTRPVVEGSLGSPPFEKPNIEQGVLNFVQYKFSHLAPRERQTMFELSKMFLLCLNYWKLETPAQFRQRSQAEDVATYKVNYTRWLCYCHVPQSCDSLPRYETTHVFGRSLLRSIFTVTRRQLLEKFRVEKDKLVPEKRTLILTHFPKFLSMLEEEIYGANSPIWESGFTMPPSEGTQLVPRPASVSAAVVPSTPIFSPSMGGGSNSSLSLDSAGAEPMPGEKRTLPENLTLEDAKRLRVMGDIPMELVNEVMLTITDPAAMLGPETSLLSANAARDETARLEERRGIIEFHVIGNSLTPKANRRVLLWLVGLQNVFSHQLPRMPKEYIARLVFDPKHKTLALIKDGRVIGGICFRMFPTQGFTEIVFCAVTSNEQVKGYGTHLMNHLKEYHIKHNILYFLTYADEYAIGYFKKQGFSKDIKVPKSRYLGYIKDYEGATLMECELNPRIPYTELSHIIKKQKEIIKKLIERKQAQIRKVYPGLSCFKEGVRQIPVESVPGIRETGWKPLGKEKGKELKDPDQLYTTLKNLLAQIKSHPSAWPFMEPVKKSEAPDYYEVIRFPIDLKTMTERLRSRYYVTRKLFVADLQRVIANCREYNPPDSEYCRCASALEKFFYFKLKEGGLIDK

| Structure (SMILES) | DC50 [1] [nM] | DC50 [2] [nM] |
| --- | --- | --- |
| CN1C[C@H](Nc2cnn(C)c(=O)c2Cl)C[C@H](c2ccc(CN3CCN(c4cncc(C5CCC(=O)NC5=O)c4)CC3)cc2)C1 (some centres unmarked) [Compound 344] | > 30 | > 30 |
| CN1C[C@H](Nc2cnn(C)c(=O)c2Cl)C[C@H](c2ccc(C(=O)N3CC(C#Cc4ccc(C5CCC(=O)NC5=O)cc4)C3)cc2)C1 (some centres unmarked) [Compound 336] | < 1 | > 30 |
| CN1C[C@H](Nc2cnn(C)c(=O)c2Cl)C[C@H](c2ccc(CN3CCN(c4ccc(F)c(C5CCC(=O)NC5=O)c4)CC3)cc2)C1 (some centres unmarked) [Compound 341] | < 1 | 1 to 30 |
| Cc1c(N[C@@H]2C[C@H](c3ccc(CN4CCN(c5ccnc(C6CCC(=O)NC6=O)c5)CC4)cc3)CN(C)C2)cnn(C)c1=O (some centres unmarked) [Compound 352] | 1 to 30 | > 30 |
| CN1C[C@H](Nc2cnn(C)c(=O)c2Cl)C[C@H](c2ccc(C(=O)N3CCC4(CCC(c5ccc(C6CCC(=O)NC6=O)cc5)CC4)CC3)cc2)C1 (some centres unmarked) [Compound 324] | < 1 | < 1 |
| Cc1cc(N2CCC3(CCN(C(=O)c4ccc([C@H]5C[C@@H](Nc6cnn(C)c(=O)c6Cl)CN(C)C5)cc4)CC3)CC2)ncc1C1CCC(=O)NC1=O (some centres unmarked) [Compound 266] | < 1 | < 1 |
| CN1C[C@H](Nc2cnn(C)c(=O)c2Cl)C[C@H](c2ccc(CN3CCN(c4ccc5cc(C6CCC(=O)NC6=O)cnc5c4)CC3)cc2)C1 (some centres unmarked) [Compound 298] | < 1 | > 30 |
| Cc1ncsc1-c1ccc(CNC(=O)[C@@H]2C[C@@H](O)CN2C(=O)[C@@H](NC(=O)CC2CCN(C(=O)c3ccc([C@H]4C[C@@H](Nc5cnn(C)c(=O)c5Br)CN(C)C4)cc3)CC2)C(C)(C)C)cc1 [Compound 411] | > 30 | > 30 |
| Cc1cc(N2CCC(N3CCN(C(=O)c4ccc([C@H]5C[C@@H](Nc6cnn(C)c(=O)c6Cl)CN(C)C5)cc4)CC3)CC2)ccc1C1CCC(=O)NC1=O (some centres unmarked) [Compound 310] | < 1 | > 30 |
| Cc1cc(N2CCN(C3CCN(C(=O)c4ccc([C@H]5C[C@@H](Nc6cnn(C)c(=O)c6Br)CN(C)C5)cc4)CC3)CC2)ccc1C1CCC(=O)NC1=O (some centres unmarked) [Compound 312] | < 1 | > 30 |
| COc1cc(C2CCC(=O)NC2=O)ccc1N1CCC2(CCN(C(=O)c3ccc([C@H]4C[C@@H](Nc5cnn(C)c(=O)c5C)CN(C)C4)cc3)CC2)CC1 (some centres unmarked) [Compound 257] | < 1 | 1 to 30 |
| CN1C[C@H](Nc2cnn(C)c(=O)c2Cl)C[C@H](c2ccc(C(=O)N3CCC4(CC3)CN(c3ccc(C5CCC(=O)NC5=O)c(F)c3)C4)cc2)C1 (some centres unmarked) [Compound 289] | < 1 | > 30 |
| CN1C[C@H](Nc2cnn(C)c(=O)c2Br)C[C@H](c2ccc(CN3CCN(c4cc(C5CCC(=O)NC5=O)c(F)cc4F)CC3)cc2)C1 (some centres unmarked) [Compound 358] | > 30 | > 30 |
| Cc1c(C2CCC(=O)NC2=O)ccc(N2CCC3(CCN(C(=O)c4ccc([C@H]5C[C@@H](Nc6cnn(C)c(=O)c6Br)CN(C)C5)cc4)CC3)CC2)c1F (some centres unmarked) [Compound 254] | < 1 | 1 to 30 |
| CN1C[C@H](Nc2cnn(C)c(=O)c2Cl)C[C@H](c2ccc(CN3CCN(c4ccnc(C5CCC(=O)NC5=O)c4)CC3)cc2)C1 (some centres unmarked) [Compound 351] | 1 to 30 | > 30 |
| Cc1c(N[C@@H]2C[C@H](c3ccc(C(=O)N4CCC(c5ccc6c(C7CCC(=O)NC7=O)cncc6c5)CC4)cc3)CN(C)C2)cnn(C)c1=O (some centres unmarked) [Compound 378] | 1 to 30 | > 30 |
| Cc1ncsc1-c1ccc(CNC(=O)[C@@H]2C[C@@H](O)CN2C(=O)[C@@H](NC(=O)CN2CCN(C3CCN(C(=O)c4ccc([C@H]5C[C@@H](Nc6cnn(C)c(=O)c6Br)CN(C)C5)cc4)CC3)CC2)C(C)(C)C)cc1 [Compound 408] | > 30 | > 30 |
| CN1C[C@H](Nc2cnn(C)c(=O)c2Cl)C[C@H](c2ccc(CN3CC(c4ccc5c(c4)C(=O)N(C4CCC(=O)NC4=O)C5=O)C3)cc2)C1 (some centres unmarked) [Compound 199] | > 30 | > 30 |
| COc1cc(N2CCC3(CCN(C(=O)c4ccc([C@H]5C[C@@H](Nc6cnn(C)c(=O)c6Cl)CN(C)C5)cc4)CC3)CC2)c(F)cc1C1CCC(=O)NC1=O (some centres unmarked) [Compound 279] | < 1 | > 30 |

| Structure (SMILES) | DC50 [1] [nM] | DC50 [2] [nM] |
| --- | --- | --- |
| CN1C[C@H](Nc2cnn(C)c(=O)c2Br)C[C@H](c2ccc(C(=O)N3CCC4(CC3)CCN(c3ccn(C5CCC(=O)NC5=O)c(=O)c3)CC4)cc2)C1 (some centres unmarked) [Compound 217] | 1 to 30 | > 30 |
| Cc1cc(N2CC(N3CCN(C(=O)c4ccc([C@H]5C[C@@H](Nc6cnn(C)c(=O)c6Br)CN(C)C5)cc4)CC3)C2)ccc1C1CCC(=O)NC1=O (some centres unmarked) [Compound 307] | < 1 | 1 to 30 |
| Cc1cc(N2CCC3(CCN(C(=O)c4ccc([C@H]5C[C@@H](Nc6cnn(C)c(=O)c6Cl)CN(C)C5)cc4)CC3)CC2)ccc1N1CCC(=O)NC1=O [Compound 396] | < 1 | < 1 |
| CN1C[C@H](Nc2ccn(C)c(=O)c2Br)C[C@H](c2ccc(C(=O)N3CCC4(CCC(c5ccc(C6CCC(=O)NC6=O)cc5)CC4)CC3)cc2)C1 (some centres unmarked) [Compound 313] | < 1 | < 1 |
| Cc1cc(N2CCC3(CCN(c4ccc([C@H]5C[C@@H](Nc6cnn(C)c(=O)c6Br)CN(C)C5)cc4)CC3)CC2)ccc1C1CCC(=O)NC1=O (stereo partly drawn) [Compound 436, 3-(4-(9-(4-((3R,5R)-5-((5-bromo-1-methyl-6-oxo-1,6-dihydropyridazin-4-yl)amino)-1-methylpiperidin-3-yl)phenyl)-3,9-diazaspiro[5.5]undecan-3-yl)-2-methylphenyl)piperidine-2,6-dione] | < 1 | 1 to 30 |
| Cc1ncsc1-c1ccc(CNC(=O)[C@@H]2C[C@@H](O)CN2C(=O)[C@@H](NC(=O)COCCOCCNC(=O)c2ccc(C3CC(Nc4cnn(C)c(=O)c4Br)CN(C)C3)cc2)C(C)(C)C)cc1 (some centres unmarked) [Compound 423] | > 30 | > 30 |
| CN1C[C@H](Nc2cnn(C)c(=O)c2Br)C[C@H](c2ccc(C(=O)N3CC(C#Cc4ccc(C5CCC(=O)NC5=O)cc4)C3)cc2)C1 (some centres unmarked) [Compound 337] | < 1 | > 30 |
| CN1C[C@H](Nc2cnn(C)c(=O)c2Br)C[C@H](c2ccc(CN3CCN(c4cc5c(cc4F)C(=O)N(C4CCC(=O)NC4=O)C5=O)CC3)cc2)C1 (some centres unmarked) [Compound 304] | < 1 | 1 to 30 |
| CN1C[C@H](Nc2cnn(C)c(=O)c2Br)C[C@H](c2ccc(C(=O)N3CCC4(CC3)CCN(c3ccc(N5CCC(=O)NC5=O)c(F)c3)CC4)cc2)C1 [Compound 397] | < 1 | < 1 |
| CN1C[C@H](Nc2cnn(C)c(=O)c2Br)C[C@H](c2ccc(CN3CC(c4ccc(C5CCC(=O)NC5=O)cc4)C3)cc2)C1 (some centres unmarked) [Compound 195] | 1 to 30 | > 30 |
| CN1C[C@H](Nc2cnn(C)c(=O)c2Br)C[C@H](c2ccc(C(=O)N3CCC4(CC3)CCN(c3cnc(C(=O)NC5CCC(=O)NC5=O)c(F)c3)CC4)cc2)C1 (some centres unmarked) [Compound 404] | < 1 | 1 to 30 |
| CN1C[C@H](Nc2cnn(C)c(=O)c2Br)C[C@H](c2ccc(C(=O)N3CCN(c4ccc5nc(C6CCC(=O)NC6=O)ccc5c4)CC3)cc2)C1 (some centres unmarked) [Compound 384] | < 1 | < 1 |
| CN1C[C@H](Nc2cnn(C)c(=O)c2Cl)C[C@H](c2ccc(C(=O)N3CCC4(CC3)CCN(c3ccc(C5CCC(=O)NC5=O)cc3OC(F)(F)F)CC4)cc2)C1 (some centres unmarked) [Compound 260] | < 1 | 1 to 30 |
| Cc1cc(C2CCC(=O)NC2=O)ccc1N1CCC2(CCN(C(=O)c3ccc([C@H]4C[C@@H](Nc5cnn(C)c(=O)c5Br)CN(C)C4)cc3)CC2)CC1 (some centres unmarked) [Compound 248] | < 1 | 1 to 30 |
| CN1C[C@H](Nc2cnn(C)c(=O)c2Br)C[C@H](c2ccc(C(=O)N3CCC4(CC3)CCN(c3cnn(C5CCC(=O)NC5=O)c3)CC4)cc2)C1 (some centres unmarked) [Compound 210] | 1 to 30 | < 1 |
| CN1C[C@H](Nc2cnn(C)c(=O)c2Br)C[C@H](c2ccc(N3CCC(Oc4cccc(C5CCC(=O)NC5=O)c4)CC3)cc2)C1 (stereo partly drawn) [Compound 434, 3-(3-((1-(4-((3R,5R)-5-((5-bromo-1-methyl-6-oxo-1,6-dihydropyridazin-4-yl)amino)-1-methylpiperidin-3-yl)phenyl)piperidin-4-yl)oxy)phenyl)piperidine-2,6-dione] | < 1 | < 1 |
| Cc1cc(N2CCC3(CCN(C(=O)c4ccc([C@H]5C[C@@H](Nc6cnn(C)c(=O)c6Br)CN(C)C5)cc4)CC3)CC2)ccc1OC1CCC(=O)NC1=O (some centres unmarked) [Compound 364] | < 1 | > 30 |
| CN1C[C@H](Nc2cnn(C)c(=O)c2Cl)C[C@H](c2ccc(CN3CCN(c4cc(C5CCC(=O)NC5=O)c(F)cc4F)CC3)cc2)C1 (some centres unmarked) [Compound 359] | > 30 | > 30 |
